Reference: patent US11951155B2, “Pea-derived peptide with muscle-building effect and preparation method thereof, and drug and use” (Zhongshi Duqing(Shandong) Biotech Co., Ltd, priority 2022, dated 2024)
Where “and” joins values, the source holds several entries; their conditions need not be identical. Equal entries are not always repeated. Ends that are not written are not given here.

How the values were obtained:
C2C12 cells = test: C2C12 cell proliferation assay (CCK-8, OD at 450 nm); format: cell-based; settings: for cell concentration compared with CN group: co-incubated 48 h, 0.4 μg/ml; for OD value, Average value / OD value, Repeated three groups: sample 0.4 μg/ml, OD 450 nm; for OD value, Repeated three groups: single replicates
Description: The C2C12 cells in a logarithmic growth phase were inoculated into a 96-well plate; the cells were divided into 4 groups, namely a blank control group (CN, without any peptide fractions), a pea-derived peptide S1 group, a pea-derived peptide S2 group, and a pea-derived peptide S3 group; each treatment group was set to duplicate 3 wells, with approximately 1,000 cells per well. Except for the blank control group, 0.4 μg/ml pea-derived peptide was added to the cells, and 10 μL of a CCK-8 solution was added separately at 0 h, 12 h, 24 h, 36 h, and 48 h, and mixed well; the cells were incubated in a CO2 incubator at 37° C. for 2 h, an OD value was measured using a microplate reader at 450 nm, and a cell proliferation curve was drawn.
The C2C12 cells in a logarithmic growth phase were inoculated into a 96-well plate; the cells were divided into 6 groups, namely a blank control group (CN, without any peptide fractions), and sample groups including a pea-derived peptide PP1 group (PP1), a pea-derived peptide PP2 group (PP2), a pea-derived peptide PP3 group (PP3), a pea-derived peptide PP4 group (PP4), and a pea-derived peptide PP5 group (PP5). Each treatment group was set to 3 duplicate wells, with approximately 1,000 cells per well. A sample having a concentration of 0.4 μg/ml was added to the cells of the sample groups, and 10 μL of a CCK-8 solution was added separately at 0 h, 12 h, 24 h, 36 h, and 48 h, and mixed well; the cells were incubated in a CO2 incubator at 37° C. for 2 h, an OD value was measured using a microplate reader at 450 nm, and a cell proliferation curve was drawn.

[1] = tested on: IGF-1R, cyclinD1, CDK6, p-AMPK in C2C12 cells; test: Western blot of growth and proliferation-related proteins in C2C12 cells; format: cell-based; settings: skeletal muscle cells treated with one peptide alone
From the text: The C2C12 cells in a logarithmic growth phase were inoculated into a 6-well plate at 1×10^6; the cells were divided into 6 groups, namely a blank control group (CN), and sample groups including a pea-derived peptide PP1 group (PP1), a pea-derived peptide PP2 group (PP2), a pea-derived peptide PP3 group (PP3), a pea-derived peptide PP4 group (PP4), and a pea-derived peptide PP5 group (PP5). Each treatment group was set to duplicate 3 wells, with approximately 1,000,000 cells per well; a sample having a concentration of 0.4 μg/ml was added to the cells of the sample groups, and each treatment group was set to 3 duplicate wells. After co-incubating for 24 h, the cells in different treatment groups were collected, fully lysed, and a total protein was extracted, and a protein concentration was determined using a nucleic acid protein analyzer. The protein sample was mixed with a loading buffer thoroughly, denatured at 100° C. for 10 min, and subjected to SDS-PAGE gel electrophoresis. The program included: 80 V for 30 min; 100 V for 80 min. Membrane transfer was conducted, where the membrane transfer procedure was conducted at 100 V for 90 min. After transferring, the sample was placed in a 5% skimmed milk powder, and sealed in a shaker at room temperature for 1 h. GAPDH antibody (1:2000) and PCNA antibody, AMPK antibody, p-AMPK antibody, IGF-1 antibody (1:1000) were added separately, and allowed to stand at 4° C. overnight. A secondary antibody (1:20000) was added, and incubated at room temperature for 1 h. The membrane was washed 3 times with TBST, and a Pierce-enhanced luminescent agent was added, and exposure was conducted by an automatic exposure machine.

pepsin and trypsin = test: In vitro digestion test with pepsin and trypsin; format: in vitro ADME; settings: 500 mg/L; pepsin 20 mg/g pH 2.0 37° C. 90 min, then trypsin 40 mg/g pH 7.5 37° C. 150 min; HPLC or LC-MS
Description: A pea-derived peptide aqueous solution and a pea-derived peptide PP2 aqueous solution with a mass concentration of 500 mg/L were prepared separately, pepsin (20 mg/g) was added, a pH value was adjusted to 2.0, and the two aqueous solutions were treated in a water bath at a constant temperature of 37° C. for 90 min. Following the water bath, the pH value was adjusted to 7.5, trypsin (40 mg/g) was added, and the two aqueous solutions were treated in the water bath at a constant temperature of 37° C. for 150 min. Following the water bath, the two solutions were placed in a 95° C. water bath for 5 min to inactivate the enzyme. The samples were freeze-dried and analyzed by HPLC to compare changes in the liquid chromatograms before and after digestion. Also provided were undigested pea-derived peptide and pea-derived peptide digested only by pepsin but not by trypsin.
Pea-derived peptide PP2 was digested in vitro according to the method of Example 4.

Substance	cell concentration compared with CN group (C2C12 cells)	OD value, Average value (C2C12 cells; treatment time 0 h)	OD value, Repeated three groups (C2C12 cells; treatment time 0 h)	OD value, Average value (C2C12 cells; treatment time 12 h)	OD value, Repeated three groups (C2C12 cells; treatment time 12 h)	OD value, Average value (C2C12 cells; treatment time 24 h)	OD value, Repeated three groups (C2C12 cells; treatment time 24 h)	OD value, Average value (C2C12 cells; treatment time 36 h)	OD value, Repeated three groups (C2C12 cells; treatment time 36 h)	OD value, Average value (C2C12 cells; treatment time 48 h)	OD value, Repeated three groups (C2C12 cells; treatment time 48 h)	expression of IGF-1R, cyclinD1, CDK6 and p-AMPK [1]	stability after digestion by pepsin and trypsin (pepsin and trypsin)
EGSLLLPH	increases significantly	0.35	0.28 and 0.35 and 0.41	0.53	0.52 and 0.66 and 0.42	1.26	1.24 and 1.07 and 1.48	1.73	1.77 and 1.62 and 1.81	1.95	1.96 and 1.78 and 2.10	significantly increase expression	–
LDLPVL [PP2, Leu-Asp-Leu-Pro-Val-Leu]	–	–	–	–	–	–	–	–	–	–	–	–	not digested and degraded by the pepsin and trypsin
LLYVIR	increases significantly	0.38	0.36 and 0.52 and 0.27	0.50	0.42 and 0.51 and 0.56	1.34	1.08 and 1.62 and 1.32	1.84	1.95 and 1.83 and 1.74	2.11	2.07 and 2.32 and 1.95	significantly increase expression	–
NTNYEEIEKVL	increases significantly	0.36	0.44 and 0.27 and 0.36	0.557	0.43 and 0.53 and 0.71	1.42	1.41 and 1.66 and 1.19	1.88	1.72 and 2.06 and 1.86	2.12	1.98 and 2.32 and 2.05	significantly increase expression	–
TNYEEIEKVLL	increases significantly	0.33	0.41 and 0.37 and 0.22	0.56	0.54 and 0.45 and 0.68	1.33	1.31 and 1.06 and 1.62	1.86	2.03 and 1.67 and 1.89	2.09	1.87 and 2.11 and 2.28	significantly increase expression	–
